In patent US8703716B2, “Maternal sialic acid supplementation” (DSM IP Assets B.V., priority 2010, dated 2014):
One block for each compound: values may come before it.

What was measured:
[1] = mice, dams and pups lacking the gene to produce Neu5Gc; cited from earlier work
[2] = test system: myelin basic protein (MBP) expression in the developing whole brain; experiment: MBP expression by western blot of whole brain lysates of offspring after maternal NANA supplementation; type: in vivo, Long-Evans rats
Description: (§1) To determine the effects of supplementing maternal diets with sialic acid (n-acetylneuraminic acid; NANA) on the brain development of the offspring, forty (40) pregnant Long-Evans rats were placed on four (4) diets (10 dams per diet) that differed in their administration of sialic acid (Nacalai, San Diego, Calif.). All animals were started on the diets on the 4th day after being mated (gestational day 4).
Dams placed on the gestational diet (“Gest”) received NANA (200 milligrams (mg) per kilogram (kg) body weight per day (d)) only during gestation. These animals were then placed on a base diet after the offspring were born. Conversely, dams on the lactational diet (“fact”) were placed on the base diet during gestation but received NANA (200 mg/kg/d) through the diet during lactation. Dams receiving NANA (200 mg/kg/d) through the diet throughout gestation and lactation were known as the “G+L” group.
After birth, the pups born to each diet group were crossfostered within their respective group to control for any differences in maternal care. The litters were then culled to 10 pups per dam to prevent nutritional differences caused by lack of access to the dam. The study was also designed to allow for the use of 5 pups at each endpoint (N=5) while keeping the litter size equal across all groups. Pups were taken at postnatal day 1 (p1) to determine potential differences between gestational supplementation and lactational supplementation of the maternal diet. […] Pups were also taken at p8 because it served as a midway timepoint and because the primary biomarker used cannot be detected until this day in rat development.
To determine the effects of maternal NANA supplementation on the brain development of offspring, MBP expression was measured by western blot analysis of whole brain lysates that were harvested from pups at postnatal days 0, 8, and 16 described in FIG. 2. […]
The graphs represent the average intensity of MBP expression normalized by the corresponding actin signal in relative fluorescence units (Normalized R.F.U.).

[3] = test system: thickness of MBP expression in white matter of p16 pup brain; experiment: Thickness of MBP expression in offspring brain slices by MBP immunohistochemistry and confocal laser microscopy; type: in vivo, Long-Evans rats; conditions: p16 pups
Description: as §1, with “4). […]” for “4).”
(§2) FIGS. 3A and 3B show the maternal NANA supplementation protocol for experiments testing additional doses of NANA administered during gestation (FIG. 3A) and lactation (FIG. 3B).
To determine the effects of maternal NANA supplementation on the brain development of offspring, assessment of the CC and LOT was performed by taking thin slices of the p16 pup brain described in FIG. 2, staining the slices with MBP immunohistochemistry, and measuring the areas of interest with confocal laser microscopy. […] The locations of the LOT and regions associated with the anterior commissure (AC) are also illustrated in FIG. 7A. […]
(§3) To further assess the effects of maternal NANA supplementation during lactation on the brain development of offspring, assessment of the corpus callosum (CC) and lateral olfactory tract (LOT) was performed by taking thin slices of the p16 pup brain (LacDR p16) described in FIG. 3B, staining the slices with MBP immunohistochemistry, and quantitating the areas of interest with confocal laser microscopy as described in Example 2. Maternal supplementation with NANA at doses of 25 mg/kg/d, 50 mg/kg/d, 100 mg/kg/d and 200 mg/kg/d was tested.
as §3, with “motor pyramids” for “corpus callosum (CC)”, “medial lemniscus” for “lateral olfactory tract (LOT)”

[4] = NANA and Neu5Gc concentrations in cerebrospinal fluid after a single oral NANA dose; type: in vivo, rat; conditions: single oral dose NANA 200 mg/kg
Procedure: To assess whether NANA is bioavailable to the brain in its native form or whether NANA is processed on its way across the blood-brain barrier, the levels of NANA and one of its potential metabolites were measured in rat cerebrospinal fluid (CSF). The animals' diets were first cleared of NANA by placing them on NANA-free diets for one week. The animals were then given a single, oral dose of NANA (200 mg/kg), and the CSF of each animal was sampled at 0, 0.25, 1, 2, 4, and 6 hours after dosing. The concentrations of NANA and Neu5Gc in the CSF were then assessed by high-pressure liquid chromatography coupled with fluorescence detection methods and quantitation standards.

[5] = test system: MBP expression in the cerebellum; experiment: MBP expression by western blot of offspring cerebellum after maternal NANA supplementation during lactation; type: in vivo, rat
Procedure: as §2
To further assess the effects of maternal NANA supplementation during lactation on the brain development of offspring, MBP expression was measured by western blot analysis of cerebellum that was harvested from pups at postnatal days 0, 8, and 16 described in FIG. 3B. As described in Example 2, the blots were probed with an antibody for MBP as described in Example 2 that recognizes the 18 kilodalton form (18 kD MBP) and 21 kilodalton form (21 kD MBP) and an antibody for β-actin as a protein loading control. Quantitation of MBP expression performed with densitometry of the bands in each lane, and each lane represented an individual animal as described in Example 2.
The graphs in FIGS. 12A and 12B represent the average intensity of MBP expression normalized by the corresponding actin signal in relative fluorescence units (Normalized R.F.U.).

hippocampal cultures = experiment: Ex vivo neurite extension (Map2a staining) in hippocampal cultures from offspring of NANA-supplemented dams; parameters: species or system Long-Evans rats; conditions: 6 days culture
Description: as §1
[…] These animals were then placed on a base diet after the offspring were born. Conversely, dams on the lactational diet (“fact”) were placed on the base diet during gestation but received NANA (200 mg/kg/d) through the diet during lactation. […]
To determine the effects of maternal NANA supplementation on the brain development of offspring, neurite extension was measured in hippocampal cultures made from p0 pups described in FIG. 2. […] The number of cells in each culture was assessed by staining with 4′,6-diamidino-2-phenylindole (DAPI).
The percent area of Map2a staining was determined by computerized counting of all Map2a positive pixels in each image (5 random fields for each of 9-10 cultures per group; 1 culture per animal). […] A two-tailed, unpaired students t-test was used to compare the two groups, and the test detected a significant difference between the supplemented group and the control group (**, p<0.01). […]

[6] = maternal NANA 25-200 mg/kg/d during gestation
[7] = maternal NANA 25-200 mg/kg/d during lactation, p<0.01 / p<0.001
[8] = maternal NANA during lactation, at certain doses tested, ANOVA p<0.001

Compound: O=C(CO)N[C@H]1[C@H]([C@H](O)[C@H](O)CO)OC(O)(C(=O)O)C[C@@H]1O (some centres unmarked) [Neu5Gc, N-glycolylneuraminic acid]
- transfer of Neu5Gc from fed dams to pups [1]: does not transfer

- time at which CSF NANA returned to baseline values ([4]; rat CSF): ≤ 1 h
- time of peak of native NANA in CSF after dosing ([4]; rat CSF): 15 min
- blood-brain barrier crossing of native NANA ([4]; rat, from CSF levels): crossed the blood-brain barrier
Compound: CC(=O)N[C@H]1[C@H]([C@H](O)[C@H](O)CO)OC(O)(C(=O)O)C[C@@H]1O (some centres unmarked) [NANA, N-acetylneuraminic acid]
- expression of both MBP isoforms, lactational diet compared to NANA-deficient diet ([2]; NANA 200 mg/kg/d during lactation only, overall analysis and postnatal day 8, Tukey p<0.05): significantly increased
- expression of 21 kDa MBP normalized to β-actin ([2]; whole brain of pups, maternal NANA 200 mg/kg/d in diet, one-way ANOVA p=0.012): significant increase
- expression of 18 kDa MBP normalized to β-actin ([2]; whole brain of pups, maternal NANA 200 mg/kg/d in diet, one-way ANOVA p=0.037): significant increase
- thickness of MBP expression in the motor pyramids ([3]; maternal NANA 50 mg/kg/d during lactation, p=0.022): significant increase
- maximal thickness of MBP expression in the lateral olfactory tract (LOT) ([3]; maternal NANA 200 mg/kg/d during gestation, lactation or gestation plus lactation): significant increases
- thickness of MBP expression in the corpus callosum (CC) ([3]; maternal NANA 200 mg/kg/d during gestation, lactation or gestation plus lactation, ANOVA p<0.001): significant increases
- thickness of MBP expression in the middle CC [3, 6]: did not appear to change
- thickness of MBP expression in the midline CC decussation [3, 6]: did not appear to change
- thickness of MBP expression in the frontal CC ([3]; maternal NANA 25-200 mg/kg/d during gestation, p<0.001): significant increases
- thickness of MBP expression in the LOT ([3]; maternal NANA 25-200 mg/kg/d during gestation, p<0.05 / p<0.001): significant increases
- thickness of MBP expression in the medial lemniscus ([3]; maternal NANA 25-200 mg/kg/d during gestation, p<0.05 / p<0.01): significant increases
- thickness of MBP expression in the motor pyramids ([3]; maternal NANA 25-200 mg/kg/d during gestation, p<0.05 to p<0.001): significant increases
- thickness of MBP expression in the medial lemniscus ([3]; maternal NANA 25-200 mg/kg/d during lactation): no significant changes
- thickness of MBP expression in the LOT ([3]; maternal NANA 25-200 mg/kg/d during lactation, p<0.001): significant increases
- thickness of MBP expression in the midline CC [3, 7]: significant increases
- thickness of MBP expression in the rostral CC [3, 7]: significant increases
- thickness of MBP expression in the midline CC decussation ([3]; maternal NANA 25-200 mg/kg/d during lactation, p<0.05 / p<0.001): significant increases
- thickness of MBP expression in the motor pyramids ([3]; maternal NANA during lactation, the other doses tested (25, 100, 200 mg/kg/d)): no significant changes
- total MBP (combined 18 kDa and 21 kDa) in cerebellum ([5]; maternal NANA 25 mg/kg/d during lactation, p<0.01): significant increase
- total MBP (combined 18 kDa and 21 kDa) in cerebellum ([5]; maternal NANA 100 mg/kg/d during lactation, p<0.05): significant increase
- total MBP (combined 18 kDa and 21 kDa) in cerebellum ([5]; maternal NANA 200 mg/kg/d during lactation, p<0.01): significant increase
- expression of 18 kDa MBP normalized to actin in cerebellum [5, 8]: significant increase
- expression of 21 kDa MBP normalized to actin in cerebellum [5, 8]: significant increase
- percent area of Map2a staining per neuron (neurite extension) (hippocampal cultures; dams fed NANA 25, 50, 100, 200 mg/kg/d during gestation, p<0.01 / p<0.001): significantly greater
- percent area of Map2a staining per neuron (neurite extension) (hippocampal cultures; p0 pups, dams fed NANA 200 mg/kg/d during gestation, p<0.01 vs control): significantly greater
